Patent publication US20240059671A1, “TYROSINE KINASE 2 (TYK2) DEGRADATION COMPOUNDS AND METHODS OF USE” (CULLGEN (SHANGHAI), INC., priority 2020, published 2024)

Target: TYK2 (Homo sapiens, UniProt P29597)
Experiment: TYK2 protein degradation in NOMO-1 cells by immunoblotting
Assay type: cell-based
Parameters: endogenous in cells
Details: NOMO-1 cells
Procedure, shortened: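 NOMO-1 cells in RPMI 1640 with 10% FBS were exposed to compound at 0.1–1000 nM for 16 hours. TYK2 levels in RIPA lysates were measured by SDS-PAGE immunoblot with chemiluminescent detection and band densitometry.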

Chain of TYK2 (P29597 whole entry): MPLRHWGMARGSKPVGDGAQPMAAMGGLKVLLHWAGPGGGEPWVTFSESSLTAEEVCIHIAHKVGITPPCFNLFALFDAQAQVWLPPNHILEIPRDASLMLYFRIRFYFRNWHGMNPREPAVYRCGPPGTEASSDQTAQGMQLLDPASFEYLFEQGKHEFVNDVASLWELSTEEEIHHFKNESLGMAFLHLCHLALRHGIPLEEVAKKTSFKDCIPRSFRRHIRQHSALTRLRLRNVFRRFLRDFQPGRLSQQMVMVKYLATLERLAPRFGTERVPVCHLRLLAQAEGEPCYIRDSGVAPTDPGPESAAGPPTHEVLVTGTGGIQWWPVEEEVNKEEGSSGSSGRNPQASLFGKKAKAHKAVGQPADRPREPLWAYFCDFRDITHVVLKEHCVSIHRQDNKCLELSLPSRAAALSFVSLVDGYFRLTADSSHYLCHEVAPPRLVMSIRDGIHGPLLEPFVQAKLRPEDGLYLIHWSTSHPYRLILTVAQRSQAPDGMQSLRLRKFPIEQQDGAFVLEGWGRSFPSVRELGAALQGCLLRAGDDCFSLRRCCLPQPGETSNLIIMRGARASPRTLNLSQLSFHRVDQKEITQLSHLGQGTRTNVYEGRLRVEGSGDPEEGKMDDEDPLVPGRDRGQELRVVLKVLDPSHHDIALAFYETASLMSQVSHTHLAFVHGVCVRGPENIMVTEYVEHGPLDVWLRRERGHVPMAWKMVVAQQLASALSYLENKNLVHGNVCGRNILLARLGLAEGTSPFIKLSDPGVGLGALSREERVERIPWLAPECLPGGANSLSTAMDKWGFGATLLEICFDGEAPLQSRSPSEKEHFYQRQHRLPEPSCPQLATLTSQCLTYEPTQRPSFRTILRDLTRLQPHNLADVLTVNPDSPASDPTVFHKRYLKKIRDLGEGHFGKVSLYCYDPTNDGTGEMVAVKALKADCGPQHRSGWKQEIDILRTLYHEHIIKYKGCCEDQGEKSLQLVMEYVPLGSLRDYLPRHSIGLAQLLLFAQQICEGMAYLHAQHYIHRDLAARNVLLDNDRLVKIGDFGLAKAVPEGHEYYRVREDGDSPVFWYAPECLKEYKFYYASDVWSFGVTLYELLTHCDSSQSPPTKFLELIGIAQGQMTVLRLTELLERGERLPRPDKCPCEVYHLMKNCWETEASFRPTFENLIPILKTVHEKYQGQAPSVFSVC

| SMILES | TYK2 Degradation (NOMO-1, 10 nM) | TYK2 Degradation (NOMO-1, 100 nM) |
| --- | --- | --- |
| CNC(=O)c1nnc(Nc2ccc(N3CCN(CCCCCCCC(=O)N[C@H](C(=O)N4C[C@H](O)C[C@H]4C(=O)N[C@@H](C)c4ccc(-c5scnc5C)cc4)C(C)(C)C)CC3)cn2)cc1Nc1cccc(-c2ncn(C)n2)c1OC [CPD-113, 6-((5-(4-(8-(((S)-1-((2S,4R)-4-Hydroxy-2-(((S)-1-(4-(4-methylthiazol-5-yl)phenyl)ethyl)carbamoyl)pyrrolidin-1-yl)-3,3-dimethyl-1-oxobutan-2-yl)amino)-8-oxooctyl)piperazin-1-yl)pyridin-2-yl)amino)-4-((2-methoxy-3-(1-methyl-1H-1,2,4-triazol-3-yl)phenyl)amino)-N-methylpyridazine-3-carboxamide] | B (B: <60% TYK2 degradation, and >20% TYK2 degradation) | A (A: ≥60% TYK2 degradation) |
| CNC(=O)c1nnc(Nc2ccc(CNC(=O)CCCCCCC(=O)N[C@H](C(=O)N3C[C@H](O)C[C@H]3C(=O)N[C@@H](C)c3ccc(-c4scnc4C)cc3)C(C)(C)C)cn2)cc1Nc1cccc(-c2ncn(C)n2)c1OC [CPD-131, N1-((S)-1-((2S,4R)-4-hydroxy-2-(((S)-1-(4-(4-methylthiazol-5-yl)phenyl)ethyl)carbamoyl)pyrrolidin-1-yl)-3,3-dimethyl-1-oxobutan-2-yl)-N8-((6-((5-((2-methoxy-3-(1-methyl-1H-1,2,4-triazol-3-yl)phenyl)amino)-6-(methylcarbamoyl)pyridazin-3-yl)amino)pyridin-3-yl)methyl)octanediamide] | A (A: ≥60% TYK2 degradation) | A (A: ≥60% TYK2 degradation) |
| CNC(=O)c1nnc(Nc2ccc(C(=O)NCCOCCNc3ccc4c(c3)C(=O)N(C3CCC(=O)NC3=O)C4=O)cn2)cc1Nc1cccc(-c2ncn(C)n2)c1OC (stereo not shown) [CPD-168, 6-((5-((2-(2-((2-(2,6-dioxopiperidin-3-yl)-1,3-dioxoisoindolin-5-yl)amino)ethoxy)ethyl)carbamoyl)pyridin-2-yl)amino)-4-((2-methoxy-3-(1-methyl-1H-1,2,4-triazol-3-yl)phenyl)amino)-N-methylpyridazine-3-carboxamide] | – | C (C: ≤20% TYK2 degradation) |
| CNC(=O)c1nnc(Nc2ccc(C(=O)NCCCCCCCNc3ccc4c(c3)C(=O)N(C3CCC(=O)NC3=O)C4=O)cn2)cc1Nc1cccc(-c2ncn(C)n2)c1OC (stereo not shown) [CPD-166, 6-((5-((7-((2-(2,6-dioxopiperidin-3-yl)-1,3-dioxoisoindolin-5-yl)amino)heptyl)carbamoyl)pyridin-2-yl)amino)-4-((2-methoxy-3-(1-methyl-1H-1,2,4-triazol-3-yl)phenyl)amino)-N-methylpyridazine-3-carboxamide] | – | C (C: ≤20% TYK2 degradation) |
| CNC(=O)c1nnc(Nc2ccc(CNCCCCCCCC(=O)N[C@H](C(=O)N3C[C@H](O)C[C@H]3C(=O)N[C@@H](C)c3ccc(-c4scnc4C)cc3)C(C)(C)C)cn2)cc1Nc1cccc(-c2ncn(C)n2)c1OC [CPD-162, 6-((5-(((8-(((S)-1-((2S,4R)-4-hydroxy-2-(((S)-1-(4-(4-methylthiazol-5-yl)phenyl)ethyl)carbamoyl)pyrrolidin-1-yl)-3,3-dimethyl-1-oxobutan-2-yl)amino)-8-oxooctyl)amino)methyl)pyridin-2-yl)amino)-4-((2-methoxy-3-(1-methyl-1H-1,2,4-triazol-3-yl)phenyl)amino)-N-methylpyridazine-3-carboxamide] | B (B: <60% TYK2 degradation, and >20% TYK2 degradation) | A (A: ≥60% TYK2 degradation) |
| CNC(=O)c1nnc(Nc2ccc(C(=O)NCCCNc3ccc4c(c3)C(=O)N(C3CCC(=O)NC3=O)C4=O)cn2)cc1Nc1cccc(-c2ncn(C)n2)c1OC (stereo not shown) [CDD-175, 6-((5-((3-((2-(2,6-dioxopiperidin-3-yl)-1,3-dioxoisoindolin-5-yl)amino)propyl)carbamoyl)pyridin-2-yl)amino)-4-((2-methoxy-3-(1-methyl-1H-1,2,4-triazol-3-yl)phenyl)amino)-N-methylpyridazine-3-carboxamide] | A (A: ≥60% TYK2 degradation) | A (A: ≥60% TYK2 degradation) |
